Measurements: PubChem BioAssay (NCI)
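Five concentrations, 48 hours, 96-well plates. At the GI50, growth is halved. TGI: concentration producing complete growth inhibition.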

Legend:
Test in all cases: inhibition of tumour cell growth, NCI panel, 48 h
SN12C renal = system: SN12C renal
CAKI-1 renal = system: CAKI-1 renal
SK-MEL-2 melanoma = system: SK-MEL-2 melanoma
A549 NSCLC = system: A549 NSCLC
SF-295 CNS = system: SF-295 CNS
UO-31 renal = system: UO-31 renal
RPMI-8226 leukemia = system: RPMI-8226 leukemia
SF-539 CNS = system: SF-539 CNS
MDA-MB-231 breast = system: MDA-MB-231 breast
HOP-92 NSCLC = system: HOP-92 NSCLC
SNB-19 CNS = system: SNB-19 CNS
786-0 renal = system: 786-0 renal
IGROV1 ovarian = system: IGROV1 ovarian
HT29 colon = system: HT29 colon
OVCAR-3 ovarian = system: OVCAR-3 ovarian
HCT-116 colon = system: HCT-116 colon
U251 CNS = system: U251 CNS
MALME-3M melanoma = system: MALME-3M melanoma
KM12 colon = system: KM12 colon
K-562 leukemia = system: K-562 leukemia
DU-145 prostate = system: DU-145 prostate
T-47D breast = system: T-47D breast
NCI-H226 lung = system: NCI-H226 lung
MDA-MB-435 = system: MDA-MB-435
OVCAR-4 ovarian = system: OVCAR-4 ovarian
HCT-15 colon = system: HCT-15 colon
HOP-62 NSCLC = system: HOP-62 NSCLC
HL-60(TB) leukemia = system: HL-60(TB) leukemia
SW-620 colon = system: SW-620 colon
MOLT-4 leukemia = system: MOLT-4 leukemia
NCI-H23 lung = system: NCI-H23 lung
SK-OV-3 ovarian = system: SK-OV-3 ovarian
NCI-H460 lung = system: NCI-H460 lung
SR leukemia = system: SR leukemia
RXF 393 renal = system: RXF 393 renal
SNB-75 CNS = system: SNB-75 CNS
OVCAR-8 ovarian = system: OVCAR-8 ovarian
A498 renal = system: A498 renal
TK-10 renal = system: TK-10 renal
COLO 205 colon = system: COLO 205 colon
HCC-2998 colon = system: HCC-2998 colon
HS 578T breast = system: HS 578T breast
NCI-H522 lung = system: NCI-H522 lung
SK-MEL-28 melanoma = system: SK-MEL-28 melanoma
CCRF-CEM leukemia = system: CCRF-CEM leukemia
BT-549 breast = system: BT-549 breast
SF-268 CNS = system: SF-268 CNS
MCF7 breast = system: MCF7 breast
ACHN renal = system: ACHN renal
EKVX NSCLC = system: EKVX NSCLC
SK-MEL-5 melanoma = system: SK-MEL-5 melanoma
NCI/ADR-RES ovarian = system: NCI/ADR-RES ovarian
M14 melanoma = system: M14 melanoma
UACC-257 melanoma = system: UACC-257 melanoma
OVCAR-5 ovarian = system: OVCAR-5 ovarian
PC-3 prostate = system: PC-3 prostate
LOX IMVI melanoma = system: LOX IMVI melanoma
UACC-62 melanoma = system: UACC-62 melanoma

CC(C)S(=O)(=O)c1ccccc1Nc1nc(Nc2cccc(NC(=O)CN)c2)ncc1Cl
GI50 (SN12C renal): 210 nM | TGI (SN12C renal): 6660 nM | GI50 (CAKI-1 renal): 200 nM | TGI (CAKI-1 renal): 7250 nM | GI50 (SK-MEL-2 melanoma): 347 nM | TGI (SK-MEL-2 melanoma): 1570 nM | GI50 (A549 NSCLC): 147 nM | TGI (A549 NSCLC): 9030 nM | GI50 (SF-295 CNS): < 22.5 nM | TGI (SF-295 CNS): 8590 nM | GI50 (UO-31 renal): 176 nM | TGI (UO-31 renal): 4080 nM | GI50 (RPMI-8226 leukemia): 254 nM | TGI (RPMI-8226 leukemia): 2410 nM | GI50 (SF-539 CNS): 45.5 nM | TGI (SF-539 CNS): 334 nM | GI50 (MDA-MB-231 breast): 239 nM | TGI (MDA-MB-231 breast): 3970 nM | GI50 (HOP-92 NSCLC): 102 nM | TGI (HOP-92 NSCLC): 1550 nM | GI50 (SNB-19 CNS): 251 nM | TGI (SNB-19 CNS): 10100 nM | GI50 (786-0 renal): 235 nM | TGI (786-0 renal): 2570 nM | GI50 (IGROV1 ovarian): 263 nM | TGI (IGROV1 ovarian): 12600 nM | GI50 (HT29 colon): 183 nM | TGI (HT29 colon): 2830 nM | GI50 (OVCAR-3 ovarian): 158 nM | TGI (OVCAR-3 ovarian): 3750 nM | GI50 (HCT-116 colon): 40.3 nM | TGI (HCT-116 colon): 696 nM | GI50 (U251 CNS): 179 nM | TGI (U251 CNS): 2860 nM | GI50 (MALME-3M melanoma): 1220 nM | TGI (MALME-3M melanoma): 3120 nM | GI50 (KM12 colon): 33.1 nM | TGI (KM12 colon): 2450 nM | GI50 (K-562 leukemia): 198 nM | TGI (K-562 leukemia): 2550 nM | GI50 (DU-145 prostate): 406 nM | TGI (DU-145 prostate): 6510 nM | GI50 (T-47D breast): 586 nM | TGI (T-47D breast): 4680 nM | GI50 (NCI-H226 lung): 113 nM | TGI (NCI-H226 lung): 1980 nM | GI50 (MDA-MB-435): 553 nM | TGI (MDA-MB-435): 2160 nM | GI50 (OVCAR-4 ovarian): 336 nM | TGI (OVCAR-4 ovarian): 5050 nM | GI50 (HCT-15 colon): 160 nM | TGI (HCT-15 colon): 3720 nM | GI50 (HOP-62 NSCLC): 112 nM | TGI (HOP-62 NSCLC): 6130 nM | GI50 (HL-60(TB) leukemia): 103 nM | TGI (HL-60(TB) leukemia): 550 nM | GI50 (SW-620 colon): 39.4 nM | TGI (SW-620 colon): 4090 nM | GI50 (MOLT-4 leukemia): 231 nM | TGI (MOLT-4 leukemia): 2140 nM | GI50 (NCI-H23 lung): 208 nM | TGI (NCI-H23 lung): 1030 nM | GI50 (SK-OV-3 ovarian): 1110 nM | TGI (SK-OV-3 ovarian): 8570 nM | GI50 (NCI-H460 lung): 30.6 nM | TGI (NCI-H460 lung): 1640 nM | GI50 (SR leukemia): 10.1 nM | TGI (SR leukemia): 423 nM | GI50 (RXF 393 renal): 56.5 nM | TGI (RXF 393 renal): 302 nM | GI50 (SNB-75 CNS): 34.6 nM | TGI (SNB-75 CNS): 410 nM | GI50 (OVCAR-8 ovarian): 286 nM | TGI (OVCAR-8 ovarian): 6970 nM | GI50 (A498 renal): < 24.2 nM | TGI (A498 renal): 493 nM | GI50 (TK-10 renal): 362 nM | TGI (TK-10 renal): 7860 nM | GI50 (COLO 205 colon): 31.9 nM | TGI (COLO 205 colon): 223 nM | GI50 (HCC-2998 colon): 399 nM | TGI (HCC-2998 colon): 4120 nM | GI50 (HS 578T breast): 161 nM | TGI (HS 578T breast): 1110 nM | GI50 (NCI-H522 lung): 1330 nM | TGI (NCI-H522 lung): 4080 nM | GI50 (SK-MEL-28 melanoma): 406 nM | TGI (SK-MEL-28 melanoma): 2250 nM | GI50 (CCRF-CEM leukemia): < 35.5 nM | TGI (CCRF-CEM leukemia): 4500 nM | GI50 (BT-549 breast): 149 nM | TGI (BT-549 breast): 1000 nM | GI50 (SF-268 CNS): 189 nM | TGI (SF-268 CNS): 1300 nM | GI50 (MCF7 breast): 17.7 nM | TGI (MCF7 breast): 1250 nM | GI50 (ACHN renal): 124 nM | TGI (ACHN renal): 6950 nM | GI50 (EKVX NSCLC): 1500 nM | TGI (EKVX NSCLC): 10100 nM | GI50 (SK-MEL-5 melanoma): 136 nM | TGI (SK-MEL-5 melanoma): 894 nM | GI50 (NCI/ADR-RES ovarian): 482 nM | TGI (NCI/ADR-RES ovarian): 3600 nM | GI50 (M14 melanoma): 189 nM | TGI (M14 melanoma): 1490 nM | GI50 (UACC-257 melanoma): 997 nM | TGI (UACC-257 melanoma): 6730 nM | GI50 (OVCAR-5 ovarian): 183 nM | TGI (OVCAR-5 ovarian): 9270 nM | GI50 (PC-3 prostate): 308 nM | TGI (PC-3 prostate): 5900 nM | GI50 (LOX IMVI melanoma): 38.4 nM | TGI (LOX IMVI melanoma): 258 nM | GI50 (UACC-62 melanoma): 164 nM | TGI (UACC-62 melanoma): 1830 nM
